US10519197B1, “Peptide-based proteasome inhibitors for treating conditions mediated by senescent cells and for treating cancer” (UNITY BIOTECHNOLOGY, INC., priority 2017, dated 2019)

How the values were obtained:
Type in all cases: in vivo, mouse
[1] = system: 3MR and INK-ATTAC mice exposed to cigarette smoke; test: Cigarette smoke COPD model, oxygen saturation by pulse oximeter; conditions: after two months of cigarette smoke exposure, compared with untreated controls
Method: As a model for chronic obstructive pulmonary disease (COPD), mice were exposed to cigarette smoke. The effect of a senolytic agent on the mice exposed to smoke is assessed by senescent cell clearance, lung function, and histopathology.
The mice used in this study include the 3MR strain, described in US 2017/0027139 A1 and in Demaria et al., Dev Cell. 2014 December 22; 31(6): 722-733. The 3MR mouse has a transgene encoding thymidine kinase that converts the prodrug ganciclovir (GCV) to a compound that is lethal to cells. The enzyme in the transgene is placed under control of the p16 promoter, which causes it to be specifically expressed in senescent cells. Treatment of the mice with GCV eliminates senescent cells.
Other mice used in this study include the INK-ATTAC strain, described in US 2015/0296755 A1 and in Baker et al., Nature 2011 Nov. 2; 479(7372):232-236. The INK-ATTAC mouse has a transgene encoding switchable caspase 8 under control of the p16 promoter. The caspase 8 can be activated by treating the mice with the switch compound AP20187, whereupon the caspase 8 directly induces apoptosis in senescent cells, eliminating them from the mouse.
To conduct the experiment, six-week-old 3MR (n=35) or INK-ATTAC (n=35) mice were chronically exposed to cigarette smoke generated from a Teague TE-10 system, an automatically-controlled cigarette smoking machine that produces a combination of side-stream and mainstream cigarette smoke in a chamber, which is transported to a collecting and mixing chamber where varying amounts of air is mixed with the smoke mixture. The COPD protocol was adapted from the COPD core facility at Johns Hopkins University (Rangasamy et al., 2004, J. Clin. Invest. 114:1248-1259; Yao et al., 2012, J. Clin. Invest. 122:2032-2045).
Mice received a total of 6 hours of cigarette smoke exposure per day, 5 days a week for 6 months. Each lighted cigarette (3R4F research cigarettes containing 10.9 mg of total particulate matter (TPM), 9.4 mg of tar, and 0.726 mg of nicotine, and 11.9 mg carbon monoxide per cigarette [University of Kentucky, Lexington, Ky.]) was puffed for 2 seconds and once every minute for a total of 8 puffs, with the flow rate of 1.05 L/min, to provide a standard puff of 35 cm^3. […] The smoke chamber atmosphere was monitored for total suspended particulates (80-120 mg/m3) and carbon monoxide (350 ppm). […]
After two months of cigarette smoke (CS) exposure, lung function was assessed by monitoring oxygen saturation using the MouseSTAT PhysioSuite™ pulse oximeter (Kent Scientific). […] Mice were monitored for 30 seconds and the average peripheral capillary oxygen saturation (SpO2) measurement over this duration was calculated.

[2] = system: LDLR-/- mice fed a HFD; test: Atherosclerosis model (LDLR-/- mice, high fat diet): Sudan IV staining of aortic plaques; conditions: 25 mg/kg intraperitoneally, timepoint 3 (week 12)
Method: (§1) Two groups of LDLR−/− mice (10 weeks) are fed a high fat diet (HFD) (Harlan Teklad TD.88137) having 42% calories from fat, beginning at Week 0 and throughout the study. Two groups of LDLR−/− mice (10 weeks) are fed normal chow (−HFD). From weeks 0-2, one group of HFD mice and −HFD mice are treated with Nutlin-3A (25 mg/kg, intraperitoneally). One treatment cycle is 14 days treatment, 14 days off. Vehicle is administered to one group of HFD mice and one group of −HFD mice. At week 4 (timepoint 1), one group of mice are sacrificed and to assess presence of senescent cells in the plaques. For the some of the remaining mice, Nutlin-3A and vehicle administration is repeated from weeks 4-6. At week 8 (timepoint 2), the mice are sacrificed and to assess presence of senescent cells in the plaques. The remaining mice are treated with Nutlin-3A or vehicle from weeks 8-10. At week 12 (timepoint 3), the mice are sacrificed and to assess the level of plaque and the number of senescent cells in the plaques.
(§2) At the end of timepoint 3, LDLR−/− mice fed a HFD and treated with Nutlin-3A or vehicle (n=3 for all groups) were sacrificed, and aortas were dissected and stained with Sudan IV to detect the presence of lipid. Body composition of the mice was analyzed by MRI, and circulating blood cells were counted by Hemavet™.

[3] = system: C57BL/6J mice with surgery-induced osteoarthritis; test: Osteoarthritis model (ACL surgery): weight bearing test; conditions: 5.8 μg per operated knee, intra-articular; 4 weeks post-surgery
Method: (§3) The model was implemented as follows. C57BL/6J mice underwent surgery to cut the anterior cruciate ligament of one rear limb to induce osteoarthritis in the joint of that limb. During week 3 and week 4 post-surgery, the mice were treated with 5.8 μg of Nutlin-3A (n=7) per operated knee by intra-articular injection, q.o.d. for 2 weeks. At the end of 4 weeks post-surgery, joints of the mice were monitored for presence of senescent cells, assessed for function, monitored for markers of inflammation, and underwent histological assessment.
Function of the limbs was assessed 4 weeks post-surgery by a weight bearing test to determine which leg the mice favored. The mice were allowed to acclimate to the chamber on at least three occasions prior to taking measurements. Mice were maneuvered inside the chamber to stand with one hind paw on each scale. The weight that was placed on each hind limb was measured over a three second period. At least three separate measurements were made for each animal at each time point. The results were expressed as the percentage of the weight placed on the operated limb versus the contralateral unoperated limb.

[4] = system: MMP3, MMP13, PAI1, p21, IGFBP2, IL-1A, and IL-1B; test: Atherosclerosis model (LDLR-/- mice, high fat diet): RT-PCR of SASP factors and senescent cell markers in aortic arches; conditions: 25 mg/kg intraperitoneally, HFD
Method: as §1, with “At week 8 (timepoint 2), the mice are sacrificed and to assess presence of senescent cells in the plaques. The remaining mice are treated with Nutlin-3A or vehicle from weeks 8-10. At week 12 (timepoint 3), the mice are sacrificed and to assess the level of plaque and the number of senescent cells in the plaques.” left out
At the end of timepoint 1, LDLR−/− mice fed a HFD and treated with Nutlin-3A or vehicle were sacrificed (n=3, all groups), and the aortic arches were dissected for RT-PCR analysis of SASP factors and senescent cell markers. Values were normalized to GAPDH and expressed as fold-change versus age-matched, vehicle-treated LDLR−/− mice on a normal diet.
At the end of timepoint 2, LDLR−/− mice fed a HFD and treated with Nutlin-3A or vehicle (n=3 for all groups) were sacrificed, and aortic arches were dissected for RT-PCR analysis of SASP factors and senescent cell markers. Values were normalized to GAPDH and expressed as fold-change versus age-matched, vehicle-treated LDLR−/− mice on a normal diet.

[5] = system: p16, IL-6, and MMP13; test: Osteoarthritis model (ACL surgery): qRT-PCR of senescence and SASP markers in operated joints; conditions: 5.8 μg per operated knee, intra-articular, q.o.d. for 2 weeks; 4 weeks post-surgery; mRNA by qRT-PCR
Method: as §3
Two control groups of mice were included in the studies performed: one group comprising C57BL/6J or 3MR mice that had undergone a sham surgery (n=3) (i.e., surgical procedures followed except for cutting the ACL) and intra-articular injections of vehicle parallel to the GCV (ganciclovir) treated group; and one group comprising C57BL/6J or 3MR mice that had undergone an ACL surgery and received intra-articular injections of vehicle (n=5) parallel to the GCV-treated group. RNA from the operated joints of mice from the Nutlin-3A treated mice was analyzed for expression of SASP factors (mmp3, IL-6) and senescence markers (p16). qRT-PCR was performed to detect mRNA levels.

[6] = system: C57BL/6J mice with surgery-induced osteoarthritis; test: Osteoarthritis model (ACL surgery): histopathology of joint tissue; conditions: 5.8 μg per operated knee, intra-articular; 4 weeks post-surgery
Method: as §3

[7] = Atherosclerosis model: body composition by MRI; conditions: 25 mg/kg intraperitoneally, timepoint 3 (week 12), mice fed the high fat diet
Method: as §1, §2

[8] = Atherosclerosis model: circulating blood cell counts by Hemavet; conditions: 25 mg/kg intraperitoneally, timepoint 3 (week 12)
Method: as §1, §2

CC1(C)CCC(c2ccc(Cl)cc2)=C(CN2CCN(c3ccc(C(=O)NS(=O)(=O)c4ccc(N[C@H](CCN5CCOCC5)CSc5ccccc5)c(S(=O)(=O)C(F)(F)F)c4)cc3)CC2)C1 [ABT-263]
SpO2 levels [1]: statistically significant increases

CC[C@H](C(=O)N1CCCC[C@H]1C(=O)O[C@H](CCc1ccc(OC)c(OC)c1)c1cccc(OCC(=O)NCC(CNC(=O)COc2cccc([C@@H](CCc3ccc(OC)c(OC)c3)OC(=O)[C@@H]3CCCCN3C(=O)[C@@H](CC)c3cc(OC)c(OC)c(OC)c3)c2)CN(C)C)c1)c1cc(OC)c(OC)c(OC)c1 [AP2018]
SpO2 levels [1]: statistically significant increases

COc1ccc(C2=N[C@@H](c3ccc(Cl)cc3)[C@@H](c3ccc(Cl)cc3)N2C(=O)N2CCNC(=O)C2)c(OC(C)C)c1 [Nutlin-3A]
reduction of the surface area covered by plaques in the descending aorta [2]: about 45%
weight bearing: favoring of the unoperated hind limb over the operated hind limb [3]: abrogated this effect
expression of SASP factors and senescent cell markers MMP3, MMP13, PAI1, p21, IGFBP2, IL-1A, and IL-1B in aortic arch ([4]; after one treatment cycle (timepoint 1, week 4)): reduced expression
expression of SASP factors and senescent cell markers in aortic arch ([4]; multiple treatment cycles (timepoint 2, week 8)): reduced expression of most markers
expression of p16, IL-6, and MMP13 in the tissue [5]: reduced the expression back to below the level of the controls
destruction of the proteoglycan layer (histopathology of joint tissue) [6]: completely abrogated this effect
mass and body fat composition [7]: decreased
SpO2 levels [1]: statistically significant increases
platelet and lymphocyte counts versus vehicle treated mice [8]: equivalent

Nc1nc(O)c2ncn(COC(CO)CO)c2n1 [ganciclovir]
SpO2 levels [1]: statistically significant increases
